“Also recorded” adds a separate entry of the source. Read-outs that look alike come from different tables or passages of the source. Each block holds one compound with its values, some of them ahead of it.
What was measured:
[1] = tested on: dysferlin-null A/J myofibers; experiment: Ca2+ signaling: voltage-induced Ca2+ transients (Rhod-2) and Ca2+ waves before and after osmotic shock injury (OSI) in electroporated FDB myofibers; type: cell-based, mouse; conditions: for Ca2+ signaling activity (restoring/protecting amplitude of the Ca2+ transient after OSI): construct electroporated into dysferlin-null A/J FDB fibers, Rhod-2, before and 5 min after OSI; for Ca2+ wave frequency / suppression of Ca2+ waves after OSI: construct expressed in A/J fibers; for y-intercept for Ca transient (normalized Ca release vs amount of Venus construct in each fiber) / y-intercept for wave frequency (Ca wave frequency vs amount of Venus construct in each fiber): intercept at low expression level, FIG. 2E / FIG. 4E; for Effect on amplitude of Ca2+ transients: A/J fibers, FIG. 8
Source text: (§1) FIGS. 2A-2E show the DYSF-C2A distribution and partial protection against loss of Ca^2+ transient and development of Ca^2+ waves after OSI. The construct in FIG. 2A was electroporated into Flexor digitorum brevis (FDB) muscles of dysferlin-null A/J mice and imaged 10 d later. […] Distribution of the Venus construct is indicated to the right. Recovery is partial (in the upper region of fiber). FIG. 2D quantitates results from several dozen fibers of each type. […] Higher levels of expression show more consistent recoveries and suppression of waves than lower levels.
To assay Ca^2+ transients, Rhod-2 was added to myofibers as the Rhod2-AM derivative at a concentration of 4.4 μM, or almost 500× higher than the concentration of BAPTA-AM that effectively restores the WT phenotype. Rhod-2 is essentially rhodamine on a BAPTA backbone, so its mode of binding Ca^2+ is identical to that of BAPTA. Rhod-2 has a (calculated) Stokes' radius ˜20% larger than BAPTA; it has a lower affinity for Ca^2+ and its solubility in DMSO is ˜20× lower than BAPTA's. Rhod-2 appears to distribute uniformly in the myoplasm under these conditions of loading.

[2] = tested on: FDB muscles of A/J mice; experiment: Membrane repair after infrared laser injury in the presence of FM4-64 dye; type: cell-based, mouse; conditions: A/J FDB muscle, FM4-64 fluorescence, area under curve
Source text: FIGS. 3A-3B show the membrane repair by the DYSF-C2A domain. FDB muscles of A/J mice were electroporated with expression plasmids for WT DYSF or DYSF-C2A. 7d later muscles were removed and injured by infrared laser illumination in the presence of FM4-64 lipophilic dye. […] Means±SEM, n=7, *p<0.01 by ANOVA followed with Tukey's post-hoc test.

[3] = tested on: cultured myofibers; experiment: Accumulation of chelator in treated myofibers, estimated with fluorescent variant Fluo4-AM; type: cell-based; conditions: 10 nM extracellular concentration
Experimental: This concentration of BAPTA in myofibers is sufficient to restore elevated myoplasmic [Ca^2+ ] of 150-200 nM to levels close to WT levels of ˜100 nM. This can explain why as little as 10 nM BAPTA-AM can restore the WT phenotype.

[4] = tested on: dysferlin-null A/J myofibers; conditions: dysferlin-null fibers, background / known results, cited from earlier work
[5] = tested on: dysferlin-null A/J myofibers; experiment: Distribution of Venus-tagged constructs (triad junctions vs Z-disks) in transfected myofibers; type: cell-based, mouse; conditions: FIG. 6
Source text: as §1
The constructs in FIG. 4A were electroporated and visualized as in FIG. 2. […] Recovery is complete. FIG. 4D quantitates results from several dozen fibers transfected with each construct. […] Note the high level of Ca release and low frequency of waves indicated by the y-intercepts at low transfection levels.
A Venus-tagged version of the C2 domain of PKCα was expressed in both control (C57Bl/6) (FIG. 12A) and dysferlin-null (A/J) myofibers (FIG. 12B) and the transfected fibers were imaged. […] They help to explain the ability of the chimeric constructs containing Ven-C2-PKCα to potentiate the beneficial effects of the DYSF-C2A domain.

[6] = tested on: dysferlin and PKCα; experiment: Colocalization and co-immunoprecipitation of dysferlin and PKCα; type: cell-based
[7] = Solubility in DMSO; type: physicochemical
[8] = tested on: FDB muscles of A/J mice; conditions: dysferlin-null fibers, background / known results; cited from earlier work

Compound: V67D: full length dysferlin with pathogenic mutation V67D in C2A [reference compound]
Ca2+ signaling activity (restoring/protecting amplitude of the Ca2+ transient after OSI) [1]: inactivated full length dysferlin

Compound: C2 domain of PKCα: isolated C2 domain of PKCα (XP_024306597.1, residues 71-229), tagged with a Venus moiety
Ca2+ signaling activity (restoring/protecting amplitude of the Ca2+ transient after OSI) [1]: completely without activity
Ca2+ signaling activity (restoring/protecting amplitude of the Ca2+ transient after OSI) ([1]; listed as PKCα-C2): failed to replicate the effects of DYSF-C2A
Ca2+ signaling activity (restoring/protecting amplitude of the Ca2+ transient after OSI) ([1]; listed as PKCα-C2 domain): inactive
Membrane repair activity [2]: inactive

Intracellular vs extracellular concentration [3]: 7-10 fold
Compound: CC(=O)OCOC(=O)CN(CC(=O)OCOC(C)=O)c1ccc(C)cc1OCCOc1cc(-c2c3cc(F)c(=O)cc-3oc3cc(OCOC(C)=O)c(F)cc23)ccc1N(CC(=O)OCOC(C)=O)CC(=O)OCOC(C)=O [Fluo4-AM]

Compound: O=C1CN(/N=C/c2ccc(-c3ccc([N+](=O)[O-])cc3)o2)C(O)=N1 [dantrolene]
Ca2+ signaling (Ca2+ transient amplitude, loss after OSI, waves), earlier studies [4]: prevented these changes

Compound: W52R: full length dysferlin with pathogenic mutation W52R in C2A [reference compound]
Ca2+ signaling activity (restoring/protecting amplitude of the Ca2+ transient after OSI) [1]: inactivated full length dysferlin

Compound: COc1ccc([C@@H]2Sc3ccccc3N(CCN(C)C)C(=O)[C@@H]2OC(C)=O)cc1 [diltiazem]
Ca2+ signaling (Ca2+ transient amplitude, loss after OSI, waves), earlier studies [4]: prevented these changes

Compound: C2-PKCα-DYSF-C2A: chimeric construct with C2-PKCα just N-terminal to DYSF-C2A, tagged with Venus; SEQ ID NO: 11
Ca2+ signaling activity (restoring/protecting amplitude of the Ca2+ transient after OSI) [1]: results identical to WT DYSF; also recorded: indistinguishable from WT DYSF in restoring the amplitude of the Ca^2+ transient
Ca2+ wave frequency / suppression of Ca2+ waves after OSI [1]: almost as effective in suppressing Ca^2+ waves
y-intercept for Ca transient (normalized Ca release vs amount of Venus construct in each fiber) [1]: 3.7
y-intercept for wave frequency (Ca wave frequency vs amount of Venus construct in each fiber) [1]: 0.11
Membrane repair activity [2]: improved repair as well as WT DYSF; also recorded: just as effective as WT DYSF in supporting membrane repair
Transfected fibers with construct targeted to / concentrated at TJs [5]: ~25%

Compound: CC(=O)OCOC(=O)CN(CC(=O)OCOC(C)=O)c1ccccc1OCCOc1ccccc1N(CC(=O)OCOC(C)=O)CC(=O)OCOC(C)=O [BAPTA-AM, reference compound]
Restoration of WT phenotype (Ca2+ transient before and after OSI, Ca2+ waves) ([1]; 10 nM added to cultured A/J myofibers): effectively restores A/J myofibers to the WT phenotype

Compound: CCCCCCCCCCCCCC(=O)O[C@@H]1[C@@H](C)[C@@]2(O)[C@@H](C=C(CO)C[C@]3(O)C(=O)C(C)=C[C@@H]23)[C@@H]2C(C)(C)[C@]12OC(C)=O [PMA, phorbol 12-myristate 13-acetate, reference compound]
Effect on amplitude of Ca2+ transients [1]: significantly alter the amplitude of the Ca^2+ transients
Effect on colocalization of dysferlin and PKCα in myofibers and on co-IP from HEK cells [6]: neither phorbol 12-myristate 13-acetate (PMA) nor staurosporine, drugs that activate and inhibit PKCα, respectively, have any effect

Compound: 2 C2-PKCα domains with a single DYSF-C2A domain: construct that contains 2 C2-PKCα domains with a single DYSF-C2A domain; SEQ ID NO: 13
Transfected fibers with construct targeted to / concentrated at TJs [5]: 75%

Compound: A84V: full length dysferlin with polymorphism A84V in C2A [reference compound]
Ca2+ signaling activity (restoring/protecting amplitude of the Ca2+ transient after OSI) [1]: left dysferlin's Ca^2+ signaling activity intact

Compound: V68L: full length dysferlin with polymorphism V68L in C2A [reference compound]
Ca2+ signaling activity (restoring/protecting amplitude of the Ca2+ transient after OSI) [1]: left dysferlin's Ca^2+ signaling activity intact

Compound: CN[C@@H]1C[C@H]2O[C@@](C)([C@@H]1OC)n1c3ccccc3c3c4c(c5c6ccccc6n2c5c31)C(=O)NC4 [staurosporine, reference compound]
Effect on amplitude of Ca2+ transients [1]: significantly alter the amplitude of the Ca^2+ transients

Compound: DYSF-C2A: C2A domain of dysferlin (AF075575.1, amino acids 1-100) expressed on its own as a Venus fusion protein; SEQ ID NO: 4
Ca2+ signaling activity (restoring/protecting amplitude of the Ca2+ transient after OSI) [1]: intermediate between Venus (negative control) and WT DYSF (positive control) controls; also recorded: partially restored some Ca^2+ signaling activity
Ca2+ wave frequency / suppression of Ca2+ waves after OSI [1]: low frequency of Ca^2+ waves, only slightly more than with WT DYSF
y-intercept for Ca transient (normalized Ca release vs amount of Venus construct in each fiber) [1]: 0.47
y-intercept for wave frequency (Ca wave frequency vs amount of Venus construct in each fiber) [1]: 0.37
Membrane repair activity [2]: improved repair as well as WT DYSF; also recorded: fully stabilized membrane repair activity

Solubility in DMSO relative to BAPTA [7]: ~20 × lower
Compound: Rhod-2

Compound: WT dysferlin: wild type full length dysferlin introduced by electroporation, positive control
Ca2+ signaling (Ca2+ transient amplitude, loss after OSI, waves), earlier studies [4]: restores full activity
Ca2+ signaling (Ca2+ transient amplitude, loss after OSI, waves), earlier studies ([4]; listed as wild type dysferlin): restores the amplitude of Ca^2+ transients to WT levels
Membrane repair, earlier studies [8]: restores full activity

Source: patent publication US20240294588A1, “C2 Domain Therapeutics and Uses Thereof” (University of Maryland, Baltimore, priority 2021, published 2024)
